Assay results reported in BigSolDB 2.1.

COC(=O)[C@@H](N)Cc1c[nH]c2ccccc12.Cl
solubility (mole fraction)
Conditions	283.2 K	288.2 K	293.2 K	298.2 K	303.2 K	308.2 K	313.2 K	318.2 K	323.2 K
in 2-butanone	0.000254	0.000295	0.00034	0.000401	0.000495	0.00058	0.000748	0.001	0.00141
in acetone	0.000289	0.000374	0.000489	0.000605	0.000793	0.00104	0.00144	0.00219	0.00343
in acetonitrile	3.75e-05	4.38e-05	5.24e-05	6.55e-05	8.15e-05	0.000101	0.000123	0.000147	0.000183
in ethanol	0.00608	0.00634	0.00683	0.00737	0.00812	0.00885	0.00966	0.0108	0.012
in ethyl acetate	4.01e-05	4.86e-05	5.9e-05	7.36e-05	0.000101	0.000134	0.000174	0.000226	0.000296
in isobutanol	0.00135	0.00142	0.0015	0.00172	0.00205	0.00245	0.00281	0.00326	0.00374
in isopropanol	0.00109	0.00122	0.00135	0.00157	0.00176	0.00195	0.0022	0.00241	0.00273
in methanol	0.0291	0.0301	0.0317	0.0334	0.0354	0.0379	0.0403	0.0437	0.0478
in n-butanol	0.00221	0.00231	0.00247	0.00263	0.00281	0.00304	0.00327	0.0035	0.00385
in n-propanol	0.00303	0.00322	0.00348	0.00376	0.00401	0.00431	0.00465	0.00512	0.00574
in sec-butanol	0.0013	0.00135	0.00149	0.00165	0.00183	0.00206	0.00227	0.00251	0.00296
in water	0.00839	0.00951	0.0107	0.0125	0.015	0.0175	0.02	0.024	0.0278
